Measurements: patent publication US6399570B1, “Antimicrobial/endotoxin neutralizing polypeptide” (priority 1999, dated 2002)

What was measured:
[1] = test system: E. coli; assay: Ionic strength effect on antimicrobial activity; format: cell-based; conditions: 25 μM polypeptide
Description: For example, reducing the ionic strength from 150 mM NaCl to 50 mM NaCl reduces the number of viable bacteria after exposure by ˜10,000-fold.
Determining ionic strength effect on antimicrobial activity. E. coli were cultured overnight as described earlier. […] To control for the effects of salt alone on culture growth, the ratio of CFU in polypeptide treated cultures to that in untreated control cultures, grown in the same salt concentration but lacking any polypeptide treatment, was calculated for each salt concentration examined. These values were then normalized to the ratio calculated for CFUs measured at […], the lowest salt concentration tested, and plotted on the Y-axis versus increasing concentration of salt on the X-axis.

[2] = test system: Lipid A; assay: Limulus ELISA, ENC50 against Lipid A; format: biochemical, E. coli K12
Description: (§1) The peptide-mediated inhibition of endotoxin-induced Limulus amebocyte lysate (LAL) coagulation was measured with a sensitive LAL assay (Zhang et al., J. Clin. Microbiol. 32: 416-422 (1994)). Limulus ELISA is an endotoxin assay based on activation of the LAL coagulation by endotoxin and detection of the generated peptide-C immunoreactivity with an ELISA using a monoclonal antibody to the polypeptide. Endotoxin was defined to be neutralized when it lost its ability to activate the LAL enzymes. The 50% endotoxin-neutralizing concentration (ENC50) reflects the potency of an anti-endotoxin agent; a low ENC50 indicates high potency. Table 2 lists the determined ENC50 value of each anti-endotoxin agent against lipid A and four different types of LPS. The potency of each anti-endotoxin agent varied depending on the type of endotoxin. […] The only difference between the sequence of LF-33 and LF-27 is that LF-27 lacks the first six residues (GRRRRS) at the N-terminus of LF-33. Remarkably, this deletion led to dramatic loss of the endotoxin-neutralizing capacity of the polypeptide in this assay. Binding of serum proteins to endotoxin neutralizes the endotoxin activity in this assay by preventing endotoxin from activating LAL (Emancipator et al., Infect. Immun. 60: 596-601 (1992)).
(§2) LPS. […] LPS (purity >99%) from Neisseria meningitidis was prepared from the group B strain #6275 and its potency was 25 EU/ng. […] The potency of the above endotoxin was determined with the Limulus enzyme-linked immunosorbent assay (ELISA, 43) in comparison with US Pharmacopeia reference standard endotoxin EC-5.
(§3) Briefly, 25 μl endotoxin solution (200 EU/ml) was mixed with an equal volume of test materials in a series of two-fold dilution in 0.15 M NaCl in a sterile 96-well tissue culture plate (Nunc A/S, Roskilde, Denmark), and incubated at 37° C. for 1 h in a dry-air incubator. […] The endotoxin activity was then quantified with the use of Limulus ELISA (Zhang et al., J. Clin. Microbiol. 32: 416-422 (1994)). […] The high sensitivity of the assay allowed for very low levels of the endotoxin activity to be detected. […]

[3] = test system: P. aer. LPS; assay: Limulus ELISA, ENC50 against P. aer. LPS; format: biochemical, Pseudomonas aeruginosa; conditions: endotoxin 200 EU/ml; mean +/− SD
Description: as §1, §2, §3

[4] = test system: N. min. LPS; assay: Limulus ELISA, ENC50 against N. min. LPS; format: biochemical, Neisseria meningitidis; conditions: endotoxin 200 EU/ml; mean +/− SD
Description: as §1, §2, §3

6 kDa polypeptide: 6 kDa fragment produced by cathepsin D digestion of human LF, amino acids 1-49 of SEQ ID NO: 2 (GRRRRSVQWCAVSQPEATKCFQWQRNMRKVRGPPVSCIKRDSPIQCIQA; listed as Homo sapiens)
reduction of number of viable bacteria on reducing ionic strength ([1]; from 150 mM NaCl to 50 mM NaCl): ~10,000 fold | growth inhibiting activity at elevated ionic strength ([1]; ionic strengths equal to or greater than 200 mM NaCl): essentially lost

CSCC[C@H](NC(=O)[C@H](CC(N)=O)NC(=O)[C@H](CCCNC(=N)N)NC(=O)[C@H](CCC(N)=O)NC(=O)[C@H](Cc1c[nH]c2ccccc12)NC(=O)[C@H](CCC(N)=O)NC(=O)[C@H](Cc1ccccc1)NC(=O)[C@H](CS)NC(=O)[C@H](CCCCN)NC(=O)[C@@H](NC(=O)[C@H](C)NC(=O)[C@H](CCC(=O)O)NC(=O)[C@@H]1CCCN1C(=O)[C@H](CCC(N)=O)NC(=O)[C@H](CO)NC(=O)[C@@H](NC(=O)[C@H](C)NC(=O)[C@H](CS)NC(=O)[C@H](Cc1c[nH]c2ccccc12)NC(=O)[C@H](CCC(N)=O)NC(=O)[C@@H](N)C(C)C)C(C)C)[C@@H](C)O)C(=O)N[C@@H](CCCNC(=N)N)C(=O)N[C@@H](CCCCN)C(=O)N[C@H](C(=O)N[C@@H](CCCNC(=N)N)C(=O)NCC(=O)N1CCC[C@H]1C(=O)O)C(C)C [LF-27]
fold less potent than LF-33 at neutralizing lipid A [2]: approximately 10 fold | IC50 ([2]; endotoxin 200 EU/ml, mean +/− SD): 0.63 µM | ENC50 against P. aer. LPS [3]: no detectable activity | IC50 [3]: > 300 µM | ENC50 against N. min. LPS [4]: no detectable activity | IC50 [4]: > 300 µM
